The values below are quoted from earlier work in patent publication US20200268651A1, “STABLE VITAMIN B12 LIQUID FORMULATIONS” (priority 2019, published 2020).

The conditions of data set [1]: long-term use.
For data set [2] the following is noted: ascorbic acid (AH2), studied at pH 1.0-8.0.

On to `CN(C)C(=N)N=C(N)N` [metformin], for which, in data set [1], the “people with reduced serum levels of vitamin B12” value is recorded as “up to 30%”.

For the molecule `C/C1=C2/[N-][C@H]([C@H](CC(N)=O)[C@@]2(C)CCC(=O)NC[C@@H](C)OP(=O)([O-])O[C@H]2[C@@H](O)[C@@H](n3cnc4cc(C)c(C)cc43)O[C@@H]2CO)[C@]2(C)N=C(/C(C)=C3N=C(/C=C4N=C1[C@@H](CCC(N)=O)C\4(C)C)[C@@H](CCC(N)=O)[C@]\3(C)CC(N)=O)[C@@H](CCC(N)=O)[C@]2(C)CC(N)=O.[Co+3].[OH-]` [hydroxocobalamin], the “pH of maximum rate of degradation in the presence of ascorbic acid” value in data set [2] was 5.0 pH. With cyanocobalamin, in data set [2], the “pH of maximum rate of degradation in the presence of ascorbic acid” value was 5.0 pH.
